Article PMC11108815 (Heliyon, 2024)

Assays:
[1] = Pharmacokinetics in rat plasma; type: in vivo, Wistar rats; conditions: for AUC(0-t) / AUC(0-inf) / CL/F / Cmax / MRT last / MRT inf / half-life / Tmax: Wistar, rat, plasma, po, 100 mg/kg; for AUC(0-t): AUC0-t; for AUC(0-inf): AUC0-∞; for CL/F: CLz/F; for MRT last: MRT0-t; for MRT inf: MRT0-∞
[2] = Stability test of QC samples; type: physicochemical, rat
[3] = FS-C: normal (blank) rats, oral FS 100 mg kg^−1, n = 6
[4] = FT-C: normal (blank) rats, oral FT 100 mg kg^−1, n = 6
[5] = control group, after oral administration of FS or FT
[6] = Store at 4 °C for 24 h, high concentration QC sample in rat plasma
[7] = Store at 4 °C for 24 h, low concentration QC sample in rat plasma
[8] = Store at 4 °C for 24 h, medium concentration QC sample in rat plasma
[9] = Store at room temperature for 12 h, high concentration QC sample in rat plasma
[10] = Store at room temperature for 12 h, low concentration QC sample in rat plasma
[11] = Store at room temperature for 12 h, medium concentration QC sample in rat plasma
[12] = Store at −20 °C for 20 days, high concentration QC sample in rat plasma
[13] = Store at −20 °C for 20 days, low concentration QC sample in rat plasma
[14] = Store at −20 °C for 20 days, medium concentration QC sample in rat plasma
[15] = Three freeze-thaw cycles, high concentration QC sample in rat plasma
[16] = Three freeze-thaw cycles, low concentration QC sample in rat plasma
[17] = Three freeze-thaw cycles, medium concentration QC sample in rat plasma

Row | AUC(0-t) [1, 4] | AUC(0-inf) [1, 4] | CL/F [1, 4] | Cmax [1, 4] | MRT last [1, 4] | MRT inf [1, 4] | Tmax [1, 4] | Tmax [1, 5] | Stability, Accuracy (RE, %) [2, 6] | Stability, Accuracy (RE, %) [2, 7] | Stability, Accuracy (RE, %) [2, 8] | Stability, Accuracy (RE, %) [2, 9] | Stability, Accuracy (RE, %) [2, 10] | Stability, Accuracy (RE, %) [2, 11] | Stability, Accuracy (RE, %) [2, 12] | Stability, Accuracy (RE, %) [2, 13] | Stability, Accuracy (RE, %) [2, 14] | Stability, Accuracy (RE, %) [2, 15] | Stability, Accuracy (RE, %) [2, 16] | Stability, Accuracy (RE, %) [2, 17] | SMILES | further results
1 | 0.0317 ± 0.012 µg·h/mL | 0.0444 ± 0.0302 µg·h/mL | 0.61 L/h/kg | 4.65 ± 0.38 ng/mL | 5.61 ± 2.5 h | 10.7 ± 10.2 h | 0.61 ± 0.68 h | > 0.47 h | 2.95% | 6.27% | −2.07% | 5.38% | −2.45% | 2.52% | 3.39% | −12.26% | 0.41% | 12.71% | 3.68% | 11.31% | O=C(O)/C=C/c1ccc(O)c(O)c1 [Caffeic acid] | AUC(0-t) [1, 3]: 0.0372 ± 0.0115 µg·h/mL; AUC(0-inf) [1, 3]: 0.0405 ± 0.0186 µg·h/mL; CL/F [1, 3]: 0.34 L/h/kg; Cmax [1, 3]: 5.78 ± 0.23 ng/mL; MRT last [1, 3]: 5.78 ± 2.57 h; MRT inf [1, 3]: 7.21 ± 5.95 h; half-life ([1]; T1/2, FS-C: normal (blank) rats, oral FS 100 mg kg^−1, n = 6): 3.62 ± 4.88 h; Tmax [1, 3]: 0.72 ± 0.31 h; Cmax in FT compared with FS ([1]; normal group, p < 0.01, 0.05): significantly lower; Cmax after modeling compared with control group ([1]; oral administration of FS): decreased; AUC0-t after modeling compared with control group ([1]; oral administration of FT): increased
2 | 0.0779 ± 0.0119 µg·h/mL | 0.116 ± 0.0834 µg·h/mL | 20.5 L/h/kg | 5.77 ± 0.62 ng/mL | 7.51 ± 0.81 h | 15.4 ± 18.6 h | 1.06 ± 1.47 h | > 0.47 h | 0.42% | 3.07% | 7.93% | 11.51% | −6.74% | 0.45% | −1.16% | 7.31% | −5.30% | 4.10% | −8.01% | −5.39% | C[C@@H]1O[C@@H](OC[C@H]2O[C@@H](Oc3c(-c4ccc(O)c(O)c4)oc4cc(O)cc(O)c4c3=O)[C@H](O)[C@@H](O)[C@@H]2O)[C@H](O)[C@H](O)[C@H]1O [Rutin] | half-life ([1]; T1/2, FT-C: normal (blank) rats, oral FT 100 mg kg^−1, n = 6): 7.39 ± 14.3 h
